According to ChEMBL document CHEMBL4382259, “Synthesis of novel guttiferone E and xanthochymol derivatives with cytotoxicities by inducing cell apoptosis and arresting the cell cycle phase” (Eur J Med Chem, 2019):
Activity calls are given as the source filed them. No cut-off for these calls is given here.

Experiments:
[1] = tested on: HEL; assay: Induction of apoptosis in HEL cells assessed as early apoptotic cells at 5 uM after 24 hrs by Annexin V-FITC/propidium iodide staining based flow cytometry (reference value: 9.9%); format: functional, Homo sapiens
[2] = tested on: HEL; assay: Induction of apoptosis in HEL cells assessed as necrotic cells at 2.5 uM after 24 hrs by Annexin V-FITC/propidium iodide staining based flow cytometry (reference value: 0.2%); format: functional, Homo sapiens
[3] = tested on: HEL; assay: Induction of morphological changes in HEL cells assessed as cell fragmentation at 5 uM after 48 hrs by microscopic analysis; format: functional, cell-based; conditions: Homo sapiens
[4] = tested on: K562; assay: Antiproliferative activity against human K562 cells after 72 hrs by MTT assay; format: functional, cell-based; conditions: K562, 72 h
[5] = tested on: HEL; assay: Induction of apoptosis in HEL cells assessed as viable cells at 10 uM after 48 hrs by Annexin V-FITC/propidium iodide staining based flow cytometry (reference value: 88.3%); format: functional; conditions: Homo sapiens, read-out: Activity
[6] = tested on: A549; assay: Antiproliferative activity against human A549 cells after 72 hrs by MTT assay; format: functional, cell-based; conditions: A549, 72 h
[7] = tested on: HEL; assay: Induction of apoptosis in HEL cells assessed as necrotic cells at 10 uM after 24 hrs by Annexin V-FITC/propidium iodide staining based flow cytometry (reference value: 0.2%); format: functional, Homo sapiens
[8] = tested on: HEL; assay: Induction of apoptosis in HEL cells assessed as necrotic cells at 10 uM after 48 hrs by Annexin V-FITC/propidium iodide staining based flow cytometry (reference value: 0.5%); format: functional, Homo sapiens
[9] = tested on: HEL; assay: Induction of apoptosis in HEL cells assessed as viable cells at 5 uM after 24 hrs by Annexin V-FITC/propidium iodide staining based flow cytometry (reference value: 88.6%); format: functional; conditions: Homo sapiens, read-out: Activity
[10] = tested on: HEL; assay: Up regulation of cleaved caspase3 expression in HEL cells at 2.5 to 10 uM after 24 hrs by Western blot analysis; format: functional, cell-based; conditions: Homo sapiens
[11] = tested on: HEL; assay: Induction of apoptosis in HEL cells assessed as late apoptotic cells at 10 uM after 24 hrs by Annexin V-FITC/propidium iodide staining based flow cytometry (reference value: 1.2%); format: functional, Homo sapiens
[12] = tested on: HEL; assay: Cell cycle arrest in HEL cells assessed as accumulation at G0/G1 phase at 5 uM after 48 hrs propidium iodide staining based flow cytometry (reference value: 37.72%); format: functional, Homo sapiens
[13] = tested on: MCF7; assay: Antiproliferative activity against human MCF7 cells after 72 hrs by MTT assay; format: functional, cell-based; conditions: MCF7, 72 h
[14] = tested on: HEL; assay: Induction of apoptosis in HEL cells assessed as early apoptotic cells at 2.5 uM after 48 hrs by Annexin V-FITC/propidium iodide staining based flow cytometry (reference value: 8%); format: functional, Homo sapiens
[15] = tested on: HEL; assay: Induction of apoptosis in HEL cells assessed as viable cells at 2.5 uM after 48 hrs by Annexin V-FITC/propidium iodide staining based flow cytometry (reference value: 88.3%); format: functional; conditions: Homo sapiens, read-out: Activity
[16] = tested on: HeLa; assay: Antiproliferative activity against human HeLa cells after 72 hrs by MTT assay; format: functional, cell-based
[17] = tested on: HEL; assay: Cell cycle arrest in HEL cells assessed as accumulation at G2/M phase at 5 uM after 48 hrs propidium iodide staining based flow cytometry (reference value: 14.33%); format: functional, Homo sapiens
[18] = tested on: HEL; assay: Induction of apoptosis in HEL cells assessed as early apoptotic cells at 2.5 uM after 24 hrs by Annexin V-FITC/propidium iodide staining based flow cytometry (reference value: 9.9%); format: functional, Homo sapiens
[19] = tested on: HEL; assay: Induction of morphological changes in HEL cells at 2.5 uM after 48 hrs by microscopic analysis; format: functional, cell-based; conditions: Homo sapiens
[20] = tested on: HEL; assay: Induction of apoptosis in HEL cells assessed as late apoptotic cells at 5 uM after 48 hrs by Annexin V-FITC/propidium iodide staining based flow cytometry (reference value: 3.3%); format: functional, Homo sapiens
[21] = tested on: HEL; assay: Up regulation of Bax expression in HEL cells after 24 hrs by Western blot analysis; format: functional, cell-based; conditions: Homo sapiens
[22] = tested on: HEL; assay: Induction of morphological changes in HEL cells assessed as cell shrinkage at 5 uM after 48 hrs by microscopic analysis; format: functional, cell-based; conditions: Homo sapiens
[23] = tested on: HEL; assay: Down regulation of full-length PARP1 expression in HEL cells at 2.5 to 10 uM after 24 hrs by Western blot analysis; format: functional, cell-based; conditions: Homo sapiens
[24] = tested on: HEL; assay: Induction of apoptosis in HEL cells assessed as late apoptotic cells at 2.5 uM after 24 hrs by Annexin V-FITC/propidium iodide staining based flow cytometry (reference value: 1.2%); format: functional, Homo sapiens
[25] = tested on: HEL; assay: Down regulation of Bcl2 expression in HEL cells after 24 hrs by Western blot analysis; format: functional, cell-based; conditions: Homo sapiens
[26] = tested on: HEL; assay: Induction of apoptosis in HEL cells assessed as late apoptotic cells at 10 uM after 48 hrs by Annexin V-FITC/propidium iodide staining based flow cytometry (reference value: 3.3%); format: functional, Homo sapiens
[27] = tested on: HEL; assay: Induction of apoptosis in HEL cells assessed as necrotic cells at 5 uM after 48 hrs by Annexin V-FITC/propidium iodide staining based flow cytometry (reference value: 0.5%); format: functional, Homo sapiens
[28] = tested on: HEL; assay: Down regulation of cyclin D1 expression in HEL cells at 2.5 to 10 uM after 24 hrs by Western blot analysis; format: functional, cell-based; conditions: Homo sapiens
[29] = tested on: HEL; assay: Induction of apoptosis in HEL cells assessed as early apoptotic cells at 5 uM after 48 hrs by Annexin V-FITC/propidium iodide staining based flow cytometry (reference value: 8%); format: functional, Homo sapiens
[30] = tested on: HEL; assay: Induction of cell death in HEL cells at 10 uM after 48 hrs by microscopic analysis; format: functional, cell-based; conditions: Homo sapiens
[31] = tested on: HEL; assay: Antiproliferative activity against HEL cells after 72 hrs by MTT assay; format: functional, cell-based; conditions: Homo sapiens
[32] = tested on: HEL; assay: Induction of apoptosis in HEL cells assessed as viable cells at 5 uM after 48 hrs by Annexin V-FITC/propidium iodide staining based flow cytometry (reference value: 88.3%); format: functional; conditions: Homo sapiens, read-out: Activity
[33] = tested on: HEL; assay: Induction of apoptosis in HEL cells assessed as late apoptotic cells at 2.5 uM after 48 hrs by Annexin V-FITC/propidium iodide staining based flow cytometry (reference value: 3.3%); format: functional, Homo sapiens
[34] = tested on: HEL; assay: Cell cycle arrest in HEL cells assessed as accumulation at S phase at 5 uM after 48 hrs propidium iodide staining based flow cytometry (reference value: 45.65%); format: functional, Homo sapiens
[35] = tested on: HEL; assay: Induction of apoptosis in HEL cells assessed as viable cells at 10 uM after 24 hrs by Annexin V-FITC/propidium iodide staining based flow cytometry (reference value: 88.6%); format: functional; conditions: Homo sapiens, read-out: Activity
[36] = tested on: HEL; assay: Induction of apoptosis in HEL cells assessed as early apoptotic cells at 10 uM after 48 hrs by Annexin V-FITC/propidium iodide staining based flow cytometry (reference value: 8%); format: functional, Homo sapiens
[37] = tested on: HEL; assay: Induction of apoptosis in HEL cells assessed as viable cells at 2.5 uM after 24 hrs by Annexin V-FITC/propidium iodide staining based flow cytometry (reference value: 88.6%); format: functional; conditions: Homo sapiens, read-out: Activity
[38] = tested on: HEL; assay: Induction of apoptosis in HEL cells assessed as necrotic cells at 5 uM after 24 hrs by Annexin V-FITC/propidium iodide staining based flow cytometry (reference value: 0.2%); format: functional, Homo sapiens
[39] = tested on: HEL; assay: Induction of apoptosis in HEL cells assessed as early apoptotic cells at 10 uM after 24 hrs by Annexin V-FITC/propidium iodide staining based flow cytometry (reference value: 9.9%); format: functional, Homo sapiens
[40] = tested on: HEL; assay: Induction of apoptosis in HEL cells assessed as necrotic cells at 2.5 uM after 48 hrs by Annexin V-FITC/propidium iodide staining based flow cytometry (reference value: 0.5%); format: functional, Homo sapiens
[41] = tested on: HEL; assay: Induction of apoptosis in HEL cells assessed as late apoptotic cells at 5 uM after 24 hrs by Annexin V-FITC/propidium iodide staining based flow cytometry (reference value: 1.2%); format: functional, Homo sapiens

For `CC(C)=CC[C@H]1C[C@]23C[C@@H](CC=C(C)C)C(C)(C)[C@H]4CCC(C)(C)O[C@]42OC(=O)C(C(=O)c2ccc(O)c(O)c2)=C3OC1(C)C`, the Activity [1] was 15.3%, the Activity [2] was 0.4% and the Activity [3] was “Active”. For the same compound, the IC50 [4] was 7.69 µM, the viability at 10 µM [5] was 49.2% and the IC50 [6] was > 20 µM. The Activity [7] was 0.8%, the Activity [8] was 2.4% and the viability at 5 µM [9] was 80.9%. The Activity [10] was “Active”, the Activity [11] was 3% and the Activity [12] was 59.29%. For the same compound, the IC50 [13] was 13.5 µM, the Activity [14] was 7.2% and the viability at 2.5 µM [15] was 84.8%. The IC50 [16] was > 20 µM, the Activity [17] was 10.76% and the Activity [18] was 10.6%. The Activity [19] was “Active”, the Activity [20] was 5.8% and the Activity [21] was “Dose-dependent effect”. The Activity [22] was “Active”, the Activity [23] was “Active” and the Activity [24] was 2.3%. For the same compound, the Activity [25] was “Dose-dependent effect”, the Activity [26] was 15.9% and the Activity [27] was 0.6%. The Activity [28] was “Active”, the Activity [29] was 21% and the Activity [30] was “Active”. It also gave an IC50 [31] of 4.79 µM, a viability at 5 µM [32] of 72.6% and an Activity [33] of 6.4%. For the same compound, the Activity [34] was 28.81%, the viability at 10 µM [35] was 61.6% and the Activity [36] was 32.5%. It also gave a viability at 2.5 µM [37] of 86.6%, an Activity [38] of 0.4% and an Activity [39] of 34.6%. The Activity [40] was 1.6% and the Activity [41] was 3.3%.
